Consider 4 molecules from patent US9259404B2 (NESTEC S.A., priority 2012, dated 2016).

For series [1] the following is noted: background statement; cited from earlier work.
Series [2] deals with AREc32 cells. Kind of series: Cell viability of AREc32 cells (ATP quantification, Cell Titer-Glo). In kind it is cell-based. The settings on record: 24 h. As for the experimental part:
The cell viability, measured by ATP quantification, is expressed as relative percentages of control (untreated) cells. The results are expressed as means of technical triplicates±SD and are representative of four independent experiments.
To determine the Nrf2 activation the samples were tested on AREC32 cells (seeded in 96 well plates) using 10 independent dilutions (1/2, 1/4, 1/6, 1/10, 1/15, 1/20, 1/25, 1/30, 1/40 and 1/50) and incubated for 24 hours at 37° C. in a 5% CO2/air incubator. The luciferase activity and the cell viability (ATP measurements) were determined using the Luciferase and Cell Titer-Glo kits from Promega.
The cell viability was also measured using a cell Titer-Glo kit (ATP quantification).
On the technique in general: In ATP-based viability assays light output follows the ATP content of the culture.

Series [3] concerns Nrf2. The series can be described thus: Nrf2 reporter assay (AREc32 cell line, luciferase under control of the ARE). In kind it is cell-based. To be noted: AREc32 cells, 24 h, dose range 0 to 200 μM (FIG. 3). How it is done: Activation of Nrf2 was measured using an Nrf2 reporter assay. This assay is based on the AREc32 cell line, from CRX biosciences (Dundee, Scotland), a stably transfected MCF7 (breast adenocarcinoma) cell line that contains a luciferase gene construct under the control of the ARE. Luciferase is an enzyme which digests luciferin and produces […]. Anti-oxidative molecules such as Tert-butylhydroquinone (TBHQ) induce luciferase transcription via the activation of Nrf2 that binds to ARE. Luciferase activity is determined using a luciferase kit form Promega (Madison, Wis.). The luciferase activity is proportional to the activation of Nrf2. […] The luciferase activity and the cell viability (ATP measurements) were determined using the Luciferase and Cell Titer-Glo kits from Promega. For each run the luciferase activities, measured in Relative Light Units (RLU), of all the wells were normalized with the mean of the luciferase activity of the cells only of all the plates. Among all the samples tested the normalization procedure was found not to affect the data and this observation permits the comparison of samples measured in different runs. For each sample the Nrf2 activation was calculated as follows: […] […] The luciferase content per sample allows a semi quantification of the Nrf2 activation by reflecting the amount of the Nrf2 activating molecule. […]

Series [4] relates to neuron astrocyte co-cultures. The series can be described thus: Neuron-astrocyte co-culture, oxidative stress induced by hydrogen peroxide, MTT assay. The series is classed as cell-based, mouse. The settings on record: 48 hours pre-treatment, 100 μM hydrogen peroxide 4 hours. An excerpt:
The beneficial effect of compounds on cell survival is classically investigated by challenging the cell cultures with neurotoxic insults and measuring the resulting oxidative stress and excitotoxicity over a limited period of time (Aksenova et al., Current Neurovascular Research, 2, 73-89 (2005)). […] The model consists of primary neurons plated on glass coverslips that face astrocytes seeded on the bottom of a culture dish. The two cellular compartments are separated by paraffin beads, but released compounds (e.g., energy substrates and glutathione precursors) can freely diffuse from one compartment to the other through the culture medium. Primary cultures of mouse neurons are grown for 12 days in Neurobasal™ medium on 20 mm diameter glass coverslips. Primary cultures of mouse astrocytes are grown for 21 days in astrocytes culture medium in 35 mm diameter dishes. Two hours before initiation of the co-culture, the astrocyte medium is removed and replaced by a fresh neuronal medium. The co-culture is initiated by putting the glass coverslips bearing neurons in the dishes containing astrocyte culture so that neurons face astrocytes. […] For detection this purple product is solubilised for colorimetric quantification at 560 nm using a spectrophotometer.
A general note: Tetrazolium dyes change colour on reduction, which living cells bring about.

“Also recorded” adds a separate entry of the source.

With `O=c1c(O)c(-c2ccc(O)c(O)c2)oc2cc(O)cc(O)c12` [quercitin], the “Aqueous solubility (in words)” value in series [1] is reported as “very low aqueous solubility”.

Regarding `Oc1ccc(C=Cc2cc(O)cc(O)c2)cc1` [resveratrol], the “Aqueous solubility (in words)” value in series [1] is listed as “very low aqueous solubility”.

In the case of `COc1cc(/C=C/C(=O)CC(=O)/C=C/c2ccc(O)c(OC)c2)ccc1O` [curcumin], the “Aqueous solubility (in words)” value in series [1] is recorded as “very low aqueous solubility”.

For `CC(=O)/C=C/C(=O)O` [4-oxo-2-pentenoic acid], the “Doses at which viability of AREc32 cells was not affected” value in series [2] is listed as “lower than 70 μM”. Further, the “Nrf2 activation (in words)” value in series [3] was “activates Nrf2; also recorded: strongly activate Nrf2 in a dose dependent manner”. In addition, the “Concentration giving the strongest protective effect” value in series [4] amounted to 5 µM. In series [4] (all tested concentrations (5 μM to 30 μM) except 10 μM), the “Protection of neurons against oxidative stress (in words)” value was “protects neuronal cells against oxidative stress; also recorded: clear and significant protection”.
